Assay results from patent US20250214991A1 (Oncopia Therapeutics, Inc. d/b/a/ SK Life Science Labs, priority 2022, published 2025).

Experiments:
IKZF2 = IKZF2 (Homo sapiens (Human), UniProt Q96SW2+Q9UKS7); assay: In vitro IKZF2 Western Blot Assay in Jurkat cells; assay type: cell-based; details: 24 hrs; for inhibition at 0.001 µM: read-out: IKZF2 degradation (%) @ μM 0.001; for inhibition at 0.01 µM: read-out: IKZF2 degradation (%) @ μM 0.01; for inhibition at 0.1 µM: read-out: IKZF2 degradation (%) @ μM 0.1; for inhibition at 1 µM: read-out: IKZF2 degradation (%) @ μM 1; for inhibition at 10 µM: read-out: IKZF2 degradation (%) @ μM 10
Description: In vitro IKZF2 Western Blot Assay Jurkat cells (ATCC, Cat #HB-8065) were cultured in RPMI1640+10% FBS+1% P/S. Cells were treated at desired compound concentrations (0.001, 0.01, 0.1, 1, and 10 μM) and DMSO as vehicle control for 24 hrs. After 24 hr of treatment cells were collected by centrifugation and lysed in RIPA lysis buffer on ice for 10 min. After assessing protein concentration by BCA assay (Pierce), equal amounts of protein for each sample were loaded into 4-12% Bis-Tris gels (Invitrogen), transferred to PVDF membranes and immunoblotted with antibodies against IKZF2 and Actin (Cell Signaling). Membranes were developed on an Odyssey detection system (LI-COR Biosciences) after incubation with IRDye800-labeled goat anti-rabbit IgG and IRDye680-labeled goat anti-mouse IgG (LI-COR) secondary antibodies. Band intensities were quantified using ImageStudio software. Data was further analyzed using XLfit. Percentage of IKZF2 protein degradation: A (>50%); B (30-50%); C(<30%) (Table 2).

CRBN/DDB1 = CRBN/DDB1 (Homo sapiens (Human), UniProt Q96SW2); assay: IC50 measurements for binding to CRBN/DDB1 (HTRF); details: His tagged CRBN+DDB, Cy5-labeled Thalidomide probe, one hour
Procedure, shortened: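 Serially diluted compounds compete with a Cy5-labeled thalidomide tracer (60 nM) for His-tagged CRBN-DDB1 (2 nM), detected via anti-6His Tb cryptate (0.4 nM); buffer HEPES pH 7.5 with TCEP, Brij-35, NaCl, BSA. One-hour room-temperature incubation, HTRF signal read, IC50 by four-parameter curve.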

IKZF2, sequence (Q9UKS7 whole entry): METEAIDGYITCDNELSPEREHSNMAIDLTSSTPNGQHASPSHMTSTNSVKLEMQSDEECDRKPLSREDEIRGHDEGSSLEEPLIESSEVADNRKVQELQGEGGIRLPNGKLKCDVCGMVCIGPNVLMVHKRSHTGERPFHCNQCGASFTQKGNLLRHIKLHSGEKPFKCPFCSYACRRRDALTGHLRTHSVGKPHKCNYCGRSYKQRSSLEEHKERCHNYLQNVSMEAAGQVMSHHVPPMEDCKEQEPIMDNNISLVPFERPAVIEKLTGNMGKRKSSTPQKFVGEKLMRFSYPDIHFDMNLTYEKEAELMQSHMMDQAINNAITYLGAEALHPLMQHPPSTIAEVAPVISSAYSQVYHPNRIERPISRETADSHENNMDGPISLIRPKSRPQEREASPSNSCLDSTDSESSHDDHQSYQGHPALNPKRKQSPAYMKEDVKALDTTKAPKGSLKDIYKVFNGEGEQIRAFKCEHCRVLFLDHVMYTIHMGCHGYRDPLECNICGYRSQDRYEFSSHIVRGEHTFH
IKZF2, sequence (Q96SW2 whole entry): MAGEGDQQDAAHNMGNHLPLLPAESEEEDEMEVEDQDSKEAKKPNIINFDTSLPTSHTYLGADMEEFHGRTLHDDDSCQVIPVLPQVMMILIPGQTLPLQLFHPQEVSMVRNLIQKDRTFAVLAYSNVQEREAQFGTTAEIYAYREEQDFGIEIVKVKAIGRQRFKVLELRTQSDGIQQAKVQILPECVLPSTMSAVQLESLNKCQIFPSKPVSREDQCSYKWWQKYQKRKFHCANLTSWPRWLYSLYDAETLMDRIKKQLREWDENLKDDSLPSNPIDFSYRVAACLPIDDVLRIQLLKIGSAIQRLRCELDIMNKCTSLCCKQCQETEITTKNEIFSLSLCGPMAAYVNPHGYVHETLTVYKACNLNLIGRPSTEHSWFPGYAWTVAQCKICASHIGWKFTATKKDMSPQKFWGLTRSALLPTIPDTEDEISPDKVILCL
IKZF2, sequence (Q16531 2-1140 partner): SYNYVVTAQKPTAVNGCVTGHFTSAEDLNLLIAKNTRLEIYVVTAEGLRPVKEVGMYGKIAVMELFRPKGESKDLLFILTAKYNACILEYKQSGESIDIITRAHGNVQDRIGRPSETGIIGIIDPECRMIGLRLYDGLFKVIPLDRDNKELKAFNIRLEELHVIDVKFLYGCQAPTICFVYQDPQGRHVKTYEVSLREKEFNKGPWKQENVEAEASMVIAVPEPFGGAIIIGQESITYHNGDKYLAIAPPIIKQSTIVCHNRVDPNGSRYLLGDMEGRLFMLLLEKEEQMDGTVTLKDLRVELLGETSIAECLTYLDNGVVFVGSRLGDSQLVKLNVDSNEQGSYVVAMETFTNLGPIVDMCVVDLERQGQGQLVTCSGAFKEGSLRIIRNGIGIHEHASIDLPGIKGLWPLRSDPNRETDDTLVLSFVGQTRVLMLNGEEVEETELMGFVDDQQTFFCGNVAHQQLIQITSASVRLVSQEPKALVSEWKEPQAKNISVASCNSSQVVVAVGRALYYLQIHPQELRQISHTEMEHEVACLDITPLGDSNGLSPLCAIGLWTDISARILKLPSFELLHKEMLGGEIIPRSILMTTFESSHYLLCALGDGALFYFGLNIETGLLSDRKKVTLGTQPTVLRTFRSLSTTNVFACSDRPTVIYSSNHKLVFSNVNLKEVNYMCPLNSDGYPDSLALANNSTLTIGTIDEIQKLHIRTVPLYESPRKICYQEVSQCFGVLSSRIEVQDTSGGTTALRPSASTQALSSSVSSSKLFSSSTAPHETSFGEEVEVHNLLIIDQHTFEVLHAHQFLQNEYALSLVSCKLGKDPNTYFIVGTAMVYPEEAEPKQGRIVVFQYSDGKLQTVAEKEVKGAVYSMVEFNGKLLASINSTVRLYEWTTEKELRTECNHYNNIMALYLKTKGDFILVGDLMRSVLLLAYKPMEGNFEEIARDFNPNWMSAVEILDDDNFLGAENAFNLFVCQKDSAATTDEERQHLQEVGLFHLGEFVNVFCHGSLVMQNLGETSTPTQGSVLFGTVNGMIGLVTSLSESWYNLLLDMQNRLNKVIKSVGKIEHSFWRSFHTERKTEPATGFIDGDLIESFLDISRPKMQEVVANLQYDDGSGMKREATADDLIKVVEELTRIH
CRBN/DDB1, sequence (Q96SW2 whole entry, species assumed): as the sequence (Q96SW2 whole entry) above
CRBN/DDB1, sequence (Q16531 whole entry partner, species assumed): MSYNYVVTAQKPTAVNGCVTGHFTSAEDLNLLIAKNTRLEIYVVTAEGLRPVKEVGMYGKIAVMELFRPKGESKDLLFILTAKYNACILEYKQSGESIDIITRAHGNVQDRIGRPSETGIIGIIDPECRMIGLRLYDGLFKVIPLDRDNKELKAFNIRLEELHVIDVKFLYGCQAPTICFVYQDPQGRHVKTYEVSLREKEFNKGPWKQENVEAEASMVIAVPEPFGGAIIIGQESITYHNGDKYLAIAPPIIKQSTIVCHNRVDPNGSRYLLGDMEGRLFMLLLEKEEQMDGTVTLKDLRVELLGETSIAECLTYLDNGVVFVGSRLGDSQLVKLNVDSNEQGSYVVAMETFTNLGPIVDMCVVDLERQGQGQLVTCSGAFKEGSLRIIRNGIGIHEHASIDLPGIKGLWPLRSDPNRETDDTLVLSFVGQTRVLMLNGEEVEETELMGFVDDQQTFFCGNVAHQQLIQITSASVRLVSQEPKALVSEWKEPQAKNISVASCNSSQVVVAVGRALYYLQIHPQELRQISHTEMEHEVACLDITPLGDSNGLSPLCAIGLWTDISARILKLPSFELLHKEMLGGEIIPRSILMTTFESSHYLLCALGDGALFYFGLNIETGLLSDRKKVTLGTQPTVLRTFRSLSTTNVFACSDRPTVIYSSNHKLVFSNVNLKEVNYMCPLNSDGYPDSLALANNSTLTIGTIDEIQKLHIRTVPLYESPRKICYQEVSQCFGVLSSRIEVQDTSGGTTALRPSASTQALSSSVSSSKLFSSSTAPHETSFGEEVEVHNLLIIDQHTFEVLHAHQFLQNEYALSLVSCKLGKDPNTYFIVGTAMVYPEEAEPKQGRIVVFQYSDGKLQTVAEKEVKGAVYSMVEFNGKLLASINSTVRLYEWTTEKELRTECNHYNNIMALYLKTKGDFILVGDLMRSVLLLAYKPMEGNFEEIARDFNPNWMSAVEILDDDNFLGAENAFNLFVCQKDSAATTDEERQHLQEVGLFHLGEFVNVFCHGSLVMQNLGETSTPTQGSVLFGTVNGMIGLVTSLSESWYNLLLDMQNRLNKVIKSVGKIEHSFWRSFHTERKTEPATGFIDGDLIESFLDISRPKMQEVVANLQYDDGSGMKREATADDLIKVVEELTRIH

Row | Structure (SMILES) | inhibition at 0.001 µM (IKZF2) [%] | inhibition at 0.01 µM (IKZF2) [%] | inhibition at 0.1 µM (IKZF2) [%] | inhibition at 1 µM (IKZF2) [%] | inhibition at 10 µM (IKZF2) [%] | IC50 (CRBN/DDB1) [nM]
1 | O=C1CCC(N2Cc3cc(-c4cc(CNCCc5ccccc5Cl)cc5cncn45)ccc3C2=O)C(=O)N1 (stereo not drawn) [Example 21, 3-(5-(7-(((2-chlorophenethyl)amino)methyl)imidazo[1,5-a]pyridin-5-yl)-1-oxoisoindolin-2-yl) piperidine-2,6-dione] | 30 to 50 | > 50 | > 50 | > 50 | > 50 | 100 to 500
2 | CC1(C)CCN(Cc2cc(-c3ccc4c(c3)CN(C3CCC(=O)NC3=O)C4=O)c3nccn3c2)CC1 (stereo not drawn) [Example 36, 3-(5-(6-((4,4-dimethylpiperidin-1-yl)methyl)imidazo[1,2-a]pyridin-8-yl)-1-oxoisoindolin-2-yl) piperidine-2,6-dione] | 30 to 50 | 30 to 50 | < 30 | < 30 | < 30 | 100 to 500
3 | O=C1CCC(N2Cc3cc(-c4cc(CN5CCCC5c5ccccc5)cc5cncn45)ccc3C2=O)C(=O)N1 (stereo not drawn) [Example 26, 3-(1-oxo-5-(7-((2-phenylpyrrolidin-1-yl)methyl)imidazo[1,5-a]pyridin-5-yl)isoindolin-2-yl) piperidine-2,6-dione] | < 30 | < 30 | 30 to 50 | 30 to 50 | 30 to 50 | 100 to 500
4 | O=C1CCC(N2Cc3cc(-c4cc(CNCCc5c(Cl)cccc5Cl)cn5ccnc45)ccc3C2=O)C(=O)N1 (stereo not drawn) [Example 41, 3-(5-(6-(((2,6-dichlorophenethyl)amino)methyl)imidazo[1,2-a]pyridin-8-yl)-1-oxoisoindolin-2-yl) piperidine-2,6-dione] | < 30 | < 30 | < 30 | < 30 | < 30 | 100 to 500
5 | O=C1CCC(N2Cc3cc(-c4cc(CN5CCC(F)(F)CC5)cn5ccnc45)ccc3C2=O)C(=O)N1 (stereo not drawn) [Example 35, 3-(5-(6-((4,4-difluoropiperidin-1-yl)methyl)imidazo[1,2-a]pyridin-8-yl)-1-oxoisoindolin-2-yl) piperidine-2,6-dione] | < 30 | < 30 | < 30 | < 30 | < 30 | 100 to 500
6 | CC(C)(NCc1cc(-c2ccc3c(c2)CN(C2CCC(=O)NC2=O)C3=O)c2nccn2c1)c1ccccc1 (stereo not drawn) [Example 46, 3-(1-oxo-5-(6-(((2-phenylpropan-2-yl)amino)methyl)imidazo[1,2-a]pyridin-8-yl)isoindolin-2-yl) piperidine-2,6-dione] | < 30 | < 30 | 30 to 50 | > 50 | > 50 | 100 to 500
7 | O=C1CCC(N2Cc3cc(-c4cc(CNCCc5ccc(Cl)cc5Cl)cn5ccnc45)ccc3C2=O)C(=O)N1 (stereo not drawn) [Example 40, 3-(5-(6-(((2,4-dichlorophenethyl)amino)methyl)imidazo[1,2-a]pyridin-8-yl)-1-oxoisoindolin-2-yl) piperidine-2,6-dione] | < 30 | < 30 | < 30 | < 30 | 30 to 50 | 100 to 500
8 | O=C1CCC(N2Cc3cc(-c4cc(CNCCc5ccccc5Cl)cn5ccnc45)ccc3C2=O)C(=O)N1 (stereo not drawn) [Example 44, 3-(5-(6-(((2-chlorophenethyl)amino)methyl)imidazo[1,2-a]pyridin-8-yl)-1-oxoisoindolin-2-yl) piperidine-2,6-dione] | < 30 | < 30 | 30 to 50 | < 30 | 30 to 50 | 100 to 500
9 | O=C1CCC(N2Cc3cc(-c4cc(CN5CCC(c6ccccc6)CC5)cn5ccnc45)ccc3C2=O)C(=O)N1 (stereo not drawn) [Example 47, 3-(1-oxo-5-(6-((4-phenylpiperidin-1-yl)methyl)imidazo[1,2-a]pyridin-8-yl)isoindolin-2-yl) piperidine-2,6-dione] | 30 to 50 | 30 to 50 | < 30 | < 30 | < 30 | < 100
10 | O=C1CCC(N2Cc3cc(-c4cc(CNCc5ccccc5Cl)cn5ccnc45)ccc3C2=O)C(=O)N1 (stereo not drawn) [Example 38, 3-(5-(6-(((2-chlorobenzyl)amino)methyl)imidazo[1,2-a]pyridin-8-yl)-1-oxoisoindolin-2-yl) piperidine-2,6-dione] | < 30 | < 30 | < 30 | < 30 | < 30 | 100 to 500
11 | O=C1CCC(N2Cc3cc(-c4cc(CN5CCC5)cn5ccnc45)ccc3C2=O)C(=O)N1 (stereo not drawn) [Example 34, 3-(5-(6-(azetidin-1-ylmethyl)imidazo[1,2-a]pyridin-8-yl)-1-oxoisoindolin-2-yl) piperidine-2,6-dione] | 30 to 50 | 30 to 50 | > 50 | > 50 | > 50 | < 100
12 | O=C1CCC(N2Cc3cc(-c4cc(CN5CCCCC5)cn5ccnc45)ccc3C2=O)C(=O)N1 (stereo not drawn) [Example 33, 3-(1-oxo-5-(6-(piperidin-1-ylmethyl)imidazo[1,2-a]pyridin-8-yl)isoindolin-2-yl) piperidine-2,6-dione] | < 30 | > 50 | > 50 | > 50 | > 50 | 100 to 500
13 | O=C1CCC(N2Cc3cc(-c4cc(CNCCc5ccccc5C(F)(F)F)cn5ccnc45)ccc3C2=O)C(=O)N1 (stereo not drawn) [Example 43] | < 30 | < 30 | < 30 | < 30 | < 30 | < 100
14 | O=C1CCC(N2Cc3cc(-c4cc(CN5CCCC5c5ccccc5)cn5ccnc45)ccc3C2=O)C(=O)N1 (stereo not drawn) [Example 49, 3-(1-oxo-5-(6-((2-phenylpyrrolidin-1-yl)methyl)imidazo[1,2-a]pyridin-8-yl)isoindolin-2-yl) piperidine-2,6-dione] | < 30 | < 30 | < 30 | < 30 | < 30 | 100 to 500
15 | O=C1CCC(N2Cc3cc(-c4cc(CN5CCC(C(F)(F)F)CC5)cn5ccnc45)ccc3C2=O)C(=O)N1 (stereo not drawn) [Example 37, 3-(1-oxo-5-(6-((4-(trifluoromethyl)piperidin-1-yl)methyl)imidazo[1,2-a]pyridin-8-yl)isoindolin-2-yl) piperidine-2,6-dione] | < 30 | < 30 | < 30 | < 30 | < 30 | < 100
16 | O=C1CCC(N2Cc3cc(-c4cc(CN5CC(c6ccccc6)C5)cn5ccnc45)ccc3C2=O)C(=O)N1 (stereo not drawn) [Example 48, 3-(1-oxo-5-(6-((3-phenylazetidin-1-yl)methyl)imidazo[1,2-a]pyridin-8-yl)isoindolin-2-yl) piperidine-2,6-dione] | < 30 | < 30 | < 30 | < 30 | < 30 | < 100
17 | O=C1CCC(N2Cc3cc(-c4cc(CNCCc5c(F)cccc5F)cn5ccnc45)ccc3C2=O)C(=O)N1 (stereo not drawn) [Example 39, 3-(5-(6-(((2,6-difluorophenethyl)amino)methyl)imidazo[1,2-a]pyridin-8-yl)-1-oxoisoindolin-2-yl) piperidine-2,6-dione] | < 30 | < 30 | < 30 | < 30 | < 30 | < 100
18 | Cc1ccccc1CCNCc1cc(-c2ccc3c(c2)CN(C2CCC(=O)NC2=O)C3=O)c2nccn2c1 (stereo not drawn) [Example 42, 3-(5-(6-(((2-methylphenethyl)amino)methyl)imidazo[1,2-a]pyridin-8-yl)-1-oxoisoindolin-2-yl) piperidine-2,6-dione] | < 30 | < 30 | < 30 | < 30 | 30 to 50 | < 100
19 | CC(NCc1cc(-c2ccc3c(c2)CN(C2CCC(=O)NC2=O)C3=O)c2nccn2c1)c1ccccc1 (stereo not drawn) [Example 45, 3-(1-oxo-5-(6-(((1-phenylethyl)amino)methyl)imidazo[1,2-a]pyridin-8-yl)isoindolin-2-yl) piperidine-2,6-dione] | 30 to 50 | < 30 | < 30 | > 50 | < 30 | 100 to 500
